What was measured:
Format in all cases: in vivo
[1] = system: velvetleaf (Abutilon theophrasti); assay: Test G Pre-Emergence Protocol; conditions: Abutilon theophrasti, pre-emergence, 312 h, evaluated after 13 days; for pest or weed control at 15.625 g/ha: 15.625 g ai/ha; for pest or weed control at 15.625 g/ha / pest or weed control at 250 g/ha: read-out: Velvetleaf damage rating (100=total damage to plant; 0=no damage to plant); for pest or weed control at 62.5 g/ha: 62.5 g ai/ha, 100=total damage to plant, 0=no damage to plant, read-out: plant damage rating, Velvetleaf; for pest or weed control at 250 g/ha: 250 g ai/ha
Method in brief: (§1)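 Test compound in 0.5% Tween 20 acetone/water (50:50) was applied at three rates (15.625, 62.5, 250 g/ha) to soil sown one day earlier. After 13 days plants were scored for injury, where 0 means unaffected and 100 means completely damaged.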

[2] = system: corn (Zea mays); assay: Test G Pre-Emergence Protocol; conditions: Zea mays, pre-emergence, 312 h, evaluated after 13 days; for plant injury at 15.625 g/ha: 15.625 g ai/ha; for plant injury at 15.625 g/ha / plant injury at 250 g/ha: read-out: Corn damage rating (100=total damage to plant; 0=no damage to plant); for plant injury at 62.5 g/ha: 62.5 g ai/ha, 100=total damage to plant, 0=no damage to plant, read-out: plant damage rating, Corn; for plant injury at 250 g/ha: 250 g ai/ha
Method in brief: as §1

[3] = system: giant foxtail (Setaria faberi); assay: Test G Pre-Emergence Protocol; conditions: Setaria faberi, pre-emergence, 312 h, evaluated after 13 days; for pest or weed control at 15.625 g/ha: 15.625 g ai/ha; for pest or weed control at 15.625 g/ha / pest or weed control at 250 g/ha: read-out: Foxtail, Giant damage rating (100=total damage to plant; 0=no damage to plant); for pest or weed control at 62.5 g/ha: 62.5 g ai/ha, 100=total damage to plant, 0=no damage to plant, read-out: plant damage rating, Foxtail, Giant; for pest or weed control at 250 g/ha: 250 g ai/ha
Method in brief: as §1

[4] = system: redroot pigweed (Amaranthus retroflexus); assay: Test G Pre-Emergence Protocol; conditions: Amaranthus retroflexus, pre-emergence, 312 h, evaluated after 13 days; for pest or weed control at 15.625 g/ha: 15.625 g ai/ha; for pest or weed control at 15.625 g/ha / pest or weed control at 250 g/ha: read-out: Pigweed, Redroot damage rating (100=total damage to plant; 0=no damage to plant); for pest or weed control at 62.5 g/ha: 62.5 g ai/ha, 100=total damage to plant, 0=no damage to plant, read-out: plant damage rating, Pigweed, Redroot; for pest or weed control at 250 g/ha: 250 g ai/ha
Method in brief: as §1

[5] = system: ivy-leaved morning glory (Ipomoea hederacea); assay: Test G Pre-Emergence Protocol; conditions: Ipomoea, pre-emergence, 312 h, evaluated after 13 days; for pest or weed control at 15.625 g/ha: 15.625 g ai/ha, read-out: Morning-glory, Ivy-leaved damage rating (100=total damage to plant; 0=no damage to plant); for pest or weed control at 62.5 g/ha: 62.5 g ai/ha, 100=total damage to plant, 0=no damage to plant, read-out: plant damage rating, Morningglory, Ivy-leaved; for pest or weed control at 250 g/ha: 250 g ai/ha, read-out: Morningglory, Ivy-leaved damage rating (100=total damage to plant; 0=no damage to plant)
Method in brief: as §1

[6] = system: barnyardgrass (Echinochloa crus-galli); assay: Test G Pre-Emergence Protocol; conditions: Echinochloa crus-galli, pre-emergence, 312 h, evaluated after 13 days; for pest or weed control at 15.625 g/ha: 15.625 g ai/ha, read-out: Barnyard grass damage rating (100=total damage to plant; 0=no damage to plant); for pest or weed control at 62.5 g/ha: 62.5 g ai/ha, 100=total damage to plant, 0=no damage to plant, read-out: plant damage rating, Barnyardgrass; for pest or weed control at 250 g/ha: 250 g ai/ha, read-out: Barnyardgrass damage rating (100=total damage to plant; 0=no damage to plant)
Method in brief: as §1

[7] = system: velvetleaf (Abutilon theophrasti); assay: Test G Post-Emergence Protocol; conditions: Abutilon theophrasti, post-emergence, 312 h; for pest or weed control at 15.625 g/ha: 15.625 g ai/ha, evaluated after 13 days (100=total damage to plant; 0=no damage to plant), read-out: Velvetleaf damage rating; for pest or weed control at 62.5 g/ha: 62.5 g ai/ha, read-out: Velvetleaf damage rating (100=total damage to plant; 0=no damage to plant); for pest or weed control at 62.5 g/ha / pest or weed control at 250 g/ha: evaluated after 13 days; for pest or weed control at 250 g/ha: 250 g ai/ha, read-out: damage to plant, Velvetleaf (100=total damage to plant; 0=no damage to plant)
Method in brief: (§2)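 Seedlings grown 8 days in soil in a glasshouse (24/16 °C day/night, 14 h light, 65% humidity) were sprayed post-emergence with compound in acetone/water 50:50 plus 0.5% Tween 20 at 15.625, 62.5 or 250 g/ha. Damage was scored after 13 days on a 0–100 scale (100 = total damage).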

[8] = system: corn (Zea mays); assay: Test G Post-Emergence Protocol; conditions: Zea mays, post-emergence, 312 h; for plant injury at 15.625 g/ha: 15.625 g ai/ha, evaluated after 13 days (100=total damage to plant; 0=no damage to plant), read-out: Corn damage rating; for plant injury at 62.5 g/ha: 62.5 g ai/ha, read-out: Corn damage rating (100=total damage to plant; 0=no damage to plant); for plant injury at 62.5 g/ha / plant injury at 250 g/ha: evaluated after 13 days; for plant injury at 250 g/ha: 250 g ai/ha, read-out: damage to plant, Corn (100=total damage to plant; 0=no damage to plant)
Method in brief: as §2

[9] = system: giant foxtail (Setaria faberi); assay: Test G Post-Emergence Protocol; conditions: Setaria faberi, post-emergence, 312 h; for pest or weed control at 15.625 g/ha: 15.625 g ai/ha, evaluated after 13 days (100=total damage to plant; 0=no damage to plant), read-out: Foxtail, Giant damage rating; for pest or weed control at 62.5 g/ha: 62.5 g ai/ha, read-out: Foxtail, Giant damage rating (100=total damage to plant; 0=no damage to plant); for pest or weed control at 62.5 g/ha / pest or weed control at 250 g/ha: evaluated after 13 days; for pest or weed control at 250 g/ha: 250 g ai/ha, read-out: damage to plant, Foxtail, Giant (100=total damage to plant; 0=no damage to plant)
Method in brief: as §2

[10] = system: redroot pigweed (Amaranthus retroflexus); assay: Test G Post-Emergence Protocol; conditions: Amaranthus retroflexus, post-emergence, 312 h; for pest or weed control at 15.625 g/ha: 15.625 g ai/ha, evaluated after 13 days (100=total damage to plant; 0=no damage to plant), read-out: Pigweed, Redroot damage rating; for pest or weed control at 62.5 g/ha: 62.5 g ai/ha, read-out: Pigweed, Redroot damage rating (100=total damage to plant; 0=no damage to plant); for pest or weed control at 62.5 g/ha / pest or weed control at 250 g/ha: evaluated after 13 days; for pest or weed control at 250 g/ha: 250 g ai/ha, read-out: damage to plant, Pigweed, Redroot (100=total damage to plant; 0=no damage to plant)
Method in brief: as §2

[11] = system: ivy-leaved morning glory (Ipomoea hederacea); assay: Test G Post-Emergence Protocol; conditions: Ipomoea, post-emergence, 312 h; for pest or weed control at 15.625 g/ha: 15.625 g ai/ha, evaluated after 13 days (100=total damage to plant; 0=no damage to plant), read-out: Morningglory, Ivy-leaved damage rating; for pest or weed control at 62.5 g/ha: 62.5 g ai/ha, read-out: Morningglory, Ivy-leaved damage rating (100=total damage to plant; 0=no damage to plant); for pest or weed control at 62.5 g/ha / pest or weed control at 250 g/ha: evaluated after 13 days; for pest or weed control at 250 g/ha: 250 g ai/ha, read-out: damage to plant, Morningglory, Ivy-leaved (100=total damage to plant; 0=no damage to plant)
Method in brief: as §2

[12] = system: barnyardgrass (Echinochloa crus-galli); assay: Test G Post-Emergence Protocol; conditions: Echinochloa crus-galli, post-emergence, 312 h; for pest or weed control at 15.625 g/ha: 15.625 g ai/ha, evaluated after 13 days (100=total damage to plant; 0=no damage to plant), read-out: Barnyardgrass damage rating; for pest or weed control at 62.5 g/ha: 62.5 g ai/ha, read-out: Barnyardgrass damage rating (100=total damage to plant; 0=no damage to plant); for pest or weed control at 62.5 g/ha / pest or weed control at 250 g/ha: evaluated after 13 days; for pest or weed control at 250 g/ha: 250 g ai/ha, read-out: damage to plant, Barnyardgrass (100=total damage to plant; 0=no damage to plant)
Method in brief: as §2

Structure (SMILES) | pest or weed control at 15.625 g/ha [1] [%] | pest or weed control at 62.5 g/ha [1] [%] | pest or weed control at 250 g/ha [1] [%] | plant injury at 15.625 g/ha [2] [%] | plant injury at 62.5 g/ha [2] [%] | plant injury at 250 g/ha [2] [%] | pest or weed control at 15.625 g/ha [3] [%] | pest or weed control at 62.5 g/ha [3] [%] | pest or weed control at 250 g/ha [3] [%] | pest or weed control at 15.625 g/ha [4] [%] | pest or weed control at 62.5 g/ha [4] [%] | pest or weed control at 250 g/ha [4] [%] | pest or weed control at 15.625 g/ha [5] [%] | pest or weed control at 62.5 g/ha [5] [%] | pest or weed control at 250 g/ha [5] [%] | pest or weed control at 15.625 g/ha [6] [%] | pest or weed control at 62.5 g/ha [6] [%] | pest or weed control at 250 g/ha [6] [%] | pest or weed control at 15.625 g/ha [7] [%] | pest or weed control at 62.5 g/ha [7] [%] | further results
CN1C[C@H](c2ccc(C(C)(C)C)cc2)[C@@H](C(=O)Nc2ccccc2F)C1=O (racemic) [Compound 1409] | 0 | 0 | 0 | 0 | 0 | 0 | 0 | 0 | 40 | 0 | 0 | 0 | 0 | 0 | 0 | 0 | 0 | 10 | 0 | 0 | pest or weed control at 250 g/ha [7]: 10%; plant injury at 15.625 g/ha [8]: 0%; plant injury at 62.5 g/ha [8]: 0%; plant injury at 250 g/ha [8]: 10%; pest or weed control at 15.625 g/ha [9]: 0%; pest or weed control at 62.5 g/ha [9]: 0%; pest or weed control at 250 g/ha [9]: 40%; pest or weed control at 15.625 g/ha [10]: 0%; pest or weed control at 62.5 g/ha [10]: 0%; pest or weed control at 250 g/ha [10]: 10%; pest or weed control at 15.625 g/ha [11]: 0%; pest or weed control at 62.5 g/ha [11]: 0%; pest or weed control at 250 g/ha [11]: 0%; pest or weed control at 15.625 g/ha [12]: 0%; pest or weed control at 62.5 g/ha [12]: 10%; pest or weed control at 250 g/ha [12]: 30%
CN1C[C@@H](c2ccc(C(F)(F)F)cc2)[C@H](C(=O)Nc2cnnc(Cl)c2Cl)C1=O (racemic) [Compound 1567] | 0 | 0 | 0 | 0 | 0 | 0 | 0 | 0 | 0 | 0 | 0 | 0 | 0 | 0 | 0 | 0 | 0 | 0 | 0 | 0 | pest or weed control at 250 g/ha [7]: 0%; plant injury at 15.625 g/ha [8]: 0%; plant injury at 62.5 g/ha [8]: 0%; plant injury at 250 g/ha [8]: 0%; pest or weed control at 15.625 g/ha [9]: 0%; pest or weed control at 62.5 g/ha [9]: 0%; pest or weed control at 250 g/ha [9]: 0%; pest or weed control at 15.625 g/ha [10]: 0%; pest or weed control at 62.5 g/ha [10]: 0%; pest or weed control at 250 g/ha [10]: 0%; pest or weed control at 15.625 g/ha [11]: 0%; pest or weed control at 62.5 g/ha [11]: 0%; pest or weed control at 250 g/ha [11]: 0%; pest or weed control at 15.625 g/ha [12]: 0%; pest or weed control at 62.5 g/ha [12]: 0%; pest or weed control at 250 g/ha [12]: 10%
